# According to patent US20220257514A1, “MONOSACCHARIDE-TAGGED NANO-LIPOSOME DRUG DELIVERY SYSTEM, THE MANUFACTURE AND USE FOR DRUG TARGETING DELIVERY THEREOF” (National Yang Ming Chiao Tung University, priority 2019, published 2022):
# How the values were obtained:
# L929 fibroblasts = assay: Annexin V/PI apoptosis, normal cell line; format: cell-based; conditions: L929 fibroblasts cultured under attached conditions
# A549 CSC = conditions: stated as known; cited from earlier work
substance,measurement,setting,value
ceramide [free ceramide],apoptosis in normal cells,L929 fibroblasts,neither free ceramide nor G5C3 cause significant apoptosis
same,resistance of A549 CSC,A549 CSC,resistant to free ceramide
